These results are taken from US20170081338A1, “SUBSTITUTED HETEROARYL COMPOUNDS AND METHODS OF USE” (Sunshine Lake Pharma Co., Ltd., priority 2015, published 2017).

The nature of data set [1]: Compound stability in rat liver microsomes. It is filed as in vitro ADME. As to conditions: pH 7.4; for half-life at 5 μM: rat liver microsomes 0.5 mg protein/mL, compound 5 μM, NADPH, 37° C., read-out: Rat T1/2; for CLint scaled at 5 μM: rat liver microsomes, in vivo CLint extrapolated. The protocol: (§1) Human or rat liver microsomes incubations were conducted in duplicate in polypropylene tubes. The typical incubation mixtures consisted of human or rat liver microsomes (0.5 mg protein/mL), compounds of interest (5 μM) and NADPH (1.0 mM) in a total volume of 200 μL potassium phosphate buffer (PBS, 100 mM, pH 7.4). Compounds were dissolved in DMSO and diluted with PBS such that the final concentration of DMSO was 0.05%. The enzymatic reactions were commenced with the addition of protein after a 3-min preincubation and incubated in a water bath open to the air at 37° C. Reactions were terminated at various time points (0, 5, 10, 15, 30, 60 min) by adding equal volume of ice-cold acetonitrile. The samples were stored at −80° C. until LC/MS/MS assays.
(§2) The concentrations of compounds in the incubation mixtures of human or rat liver microsomes were determined by a LC/MS/MS method. The ranges of the linearity in the concentration range were determined for each tested compounds.
(§3) A parallel incubation was performed using denatured microsomes as the negative control, and reactions were terminated at various time points (0, 15, 60 min) after incubation at 37° C.
(§4) Dextromethorphan (70 μM) was selected as the positive control, and reactions were terminated at various time points (0, 5, 10, 15, 30, 60 min) after incubation at 37° C. Both positive and negative control samples were included in each assay to ensure the integrity of the microsomal incubation system.
(§5) The concentrations of compounds in human or rat liver microsome incubations were plotted as a percentage of the relevant zero time point control for each reaction. The in vivo CLint were extrapolated (ref.: Naritomi, Y.; Terashita, S.; Kimura, S.; Suzuki, A.; Kagayama, A.; and Sugiyama, Y.; Prediction of human hepatic clearance from in vivo animal experiments and in vitro metabolic studies with liver microsomes from animals and humans. Drug Metab. Dispos., 2001, 29: 1316-1324).

The nature of data set [2]: Pharmacokinetics after intravenous and oral administration in rats. It is filed as in vivo. The note with it: for Clearance (CL) after iv dosing / AUC(0-t) / half-life / Vd: dose 1 mg/kg, iv dosing; for F: oral bioavailability; for AUC(0-t) / half-life / Vd: rat, plasma; for Vd: read-out: Vss. How it is done: The LC/MS/MS system used in the analysis consists of an Agilent 1200 Series vacuum degasser, binary pump, well-plate autosampler, thermostatted column compartment, the Agilent G6430 Triple Quadrupole Mass Spectrometer with an electrosprayionization (ESI) source. Quantitative analysis was carried out using MRM mode. The parameters for MRM transitions are in the Table A.
An Agilent XDB-C18, 2.1×30 mm, 3.5 μM column was used for the analysis. 5 μL of the samples were injected. Analysis condition: The mobile phase was 0.1% formic acid in water (A) and 0.1% formic acid in methanol (B). The flow rate was 0.4 mL/min. And the gradient of Mobile phase was in the Table B.
Alternatively, an Agilent 6330 series LC/MS/MS spectrometer equipped with G1312A binary pumps, a G1367A autosampler and a G1314C UV detector were used in the analysis. An ESI source was used on the LC/MS/MS spectrometer. The analysis was done in positive ion mode as appropriate and the MRM transition for each analyte was optimized using standard solution. A Capcell MP-C18 100×4.6 mm I.D., […] column (Phenomenex, Torrance, Calif., USA) was used during the analysis. The mobile phase was 5 mM ammonia acetate, 0.1% MeOH in water (A): 5 mM ammonia acetate, 0.1% MeOH in acetonitrile (B) (70/30, v/v). The flow rate was 0.6 mL/min. Column was maintained at ambient temperature. 20 μL of the samples were injected.
The compounds disclosed herein are assessed in pharmacokinetic studies in mice, rats, dogs or monkeys. The compounds are administered as a water solution, 2% HPMC+1% TWEEN®80 in water solution, 5% DMSO+5% solutol in saline, 4% MC suspension or capsule. For the intravenous administration, the animals are generally given at 0.5, 1 or 2 mg/kg dose. For the oral (p.o.) dosing, mice and rats are generally given 0.5, 1, 5 or 10 mg/kg dose, and dogs and monkeys are generally given 10 mg/kg dose. The blood samples (0.3 mL) are drawn at 0.25, 0.5, 1.0, 2.0, 3.0, 4.0, 6.0, 8.0, 12 and 24 h time points or 0.083, 0.25, 0.5, 1.0, 2.0, 4.0, 6.0, 8.0 and 24 h time points and centrifuged at 3,000 or 4000 rpm for 2 to 10 min. The plasma solutions are collected, and stored at −20° C. or −70° C. until analyzed by LC/MS/MS as described above.

Data set [3] is described as follows: Compound stability in human liver microsomes. It is filed as in vitro ADME. As to conditions: pH 7.4; for half-life at 5 μM: human liver microsomes 0.5 mg protein/mL, compound 5 μM, NADPH, 37° C., read-out: Human T1/2; for CLint scaled at 5 μM: human liver microsomes, in vivo CLint extrapolated. The protocol:
as §1, §2, §3, §4, §5

SMILES strings stand for the structures.

Regarding `CNC(=O)N[C@H]1COC2C1OC[C@H]2Nc1nc(Nc2cnn(C)c2)ncc1Cl` (stereo partly drawn) [Ex. 1, 1-((3S,6R)-6-((5-chloro-2-((1-methyl-1H-pyrazol-4-yl)amino)pyrimidin-4-yl)amino)hexahydrofuro[3,2-b]furan-3-yl)-3-methylurea], in data set [1], the half-life at 5 μM was determined as 1.93 h and the intrinsic clearance (CLint scaled) at 5 μM was 21.4 mL/min/kg. For the same compound, in data set [2], the “Clearance (CL) after iv dosing” value worked out at 42 mL/min/kg, the F is 52.4%, the exposure AUC(0-t) came to 398 ng·h/mL and the half-life is 0.23 h. Further, the Vd in data set [2] stood at 0.55 L/kg.
For the compound `Cn1cc(Nc2ncc(Cl)c(N[C@@H]3COC4C3OC[C@@H]4NS(=O)(=O)c3ccc(F)cc3)n2)cn1` (stereo partly drawn) [Ex. 8, N-((3S,6R)-6-((5-chloro-2-((1-methyl-1H-pyrazol-4-yl)amino)pyrimidin-4-yl)amino)hexahydrofuro[3,2-b]furan-3-yl)-4-fluorobenzenesulfonamide], in data set [1], the half-life at 5 μM was found to be 1.13 h and the CLint scaled at 5 μM is 36.5 mL/min/kg. In data set [3], the half-life at 5 μM amounted to 0.955 h and the CLint scaled at 5 μM was 30.4 mL/min/kg. Besides, in data set [2], the “Clearance (CL) after iv dosing” value amounted to 38 mL/min/kg, the F is 90.1%, the AUC(0-t) came out at 452 ng·h/mL and the half-life was 0.62 h. For the same compound, the Vd in data set [2] is 1.87 L/kg.
For `Cn1cc(Nc2ncc(Cl)c(N[C@@H]3COC4C3OC[C@@H]4N3CCOC3=O)n2)cn1` (stereo partly drawn) [Ex. 9, 3-((3S,6R)-6-((5-chloro-2-((1-methyl-1H-pyrazol-4-yl)amino)pyrimidin-4-yl)amino)hexahydrofuro[3,2-b]furan-3-yl)oxazolidin-2-one], in data set [2], the F turned out to be 64.6%, the AUC(0-t) amounted to 792 ng·h/mL, the half-life is 10.6 h and the Vd turned out to be 27.1 L/kg.
In the case of `Cn1cc(Nc2ncc(Cl)c(N[C@@H]3COC4C3OC[C@@H]4NS(=O)(=O)N3CCOCC3)n2)cn1` (stereo partly drawn) [Ex. 11, N-((3S,6R)-6-((5-chloro-2-((1-methyl-1H-pyrazol-4-yl)amino)pyrimidin-4-yl)amino)hexahydrofuro[3,2-b]furan-3-yl)morpholine-4-sulfonamide], in data set [1], the half-life at 5 μM was 2.01 h and the CLint scaled at 5 μM was 20.6 mL/min/kg. Besides, in data set [3], the half-life at 5 μM came out at 0.735 h and the CLint scaled at 5 μM was 39.4 mL/min/kg. Besides, in data set [2], the F is on record as 40.0%, the exposure AUC(0-t) stood at 542 ng·h/mL, the half-life is 5.58 h and the Vd is 23.5 L/kg.
Regarding `Cn1cc(Nc2ncc(Cl)c(N[C@@H]3COC4C3OC[C@@H]4N3CCCS3(=O)=O)n2)cn1` (stereo partly drawn) [Ex. 12, 2-((3S,6R)-6-((5-chloro-2-((1-methyl-1H-pyrazol-4-yl)amino)pyrimidin-4-yl)amino)hexahydrofuro[3,2-b]furan-3-yl)isothiazolidine 1,1-dioxide], in data set [1], the half-life at 5 μM turned out to be 1.75 h and the intrinsic metabolic clearance (CLint scaled) at 5 μM is 23.7 mL/min/kg. Besides, in data set [3], the half-life at 5 μM amounted to 4.53 h and the CLint scaled at 5 μM was 6.39 mL/min/kg. For the same compound, in data set [2], the “Clearance (CL) after iv dosing” value is 59.8 mL/min/kg, the F came out at 75.2%, the exposure AUC(0-t) was determined as 363 ng·h/mL and the half-life was 0.67 h. Also, the Vd in data set [2] came out at 1.98 L/kg.
For the compound `Cn1cc(Nc2ncc(Cl)c(N[C@@H]3COC4C3OC[C@@H]4N3CCCC3=O)n2)cn1` (stereo partly drawn) [Ex. 22, 1-((3S,6R)-6-((5-chloro-2-((1-methyl-1H-pyrazol-4-yl)amino)pyrimidin-4-yl)amino)hexahydrofuro[3,2-b]furan-3-yl)pyrrolidin-2-one], in data set [1], the half-life at 5 μM was determined as 1.74 h and the CLint scaled at 5 μM was 23.8 mL/min/kg. In data set [3], the half-life at 5 μM stood at 4.82 h and the CLint scaled at 5 μM was 6.01 mL/min/kg. Also, in data set [2], the “Clearance (CL) after iv dosing” value was found to be 10.2 mL/min/kg, the F is 96.9%, the AUC(0-t) was found to be 1630 ng·h/mL and the half-life is 1.09 h. In addition, the Vd in data set [2] was determined as 1.06 L/kg.
Regarding `Cn1cc(Nc2ncc(Cl)c(N[C@@H]3COC4C3OC[C@@H]4Nc3ccc(C#N)cn3)n2)cn1` (stereo partly drawn) [Ex. 23, 6-(((3S,6R)-6-((5-chloro-2-((1-methyl-1H-pyrazol-4-yl)amino)pyrimidin-4-yl)amino)hexahydrofuro[3,2-b]furan-3-yl)amino)nicotinonitrile], in data set [1], the half-life at 5 μM turned out to be 0.443 h and the CLint scaled at 5 μM is 93.4 mL/min/kg. In data set [3], the half-life at 5 μM was 0.999 h and the CLint scaled at 5 μM is 29 mL/min/kg. In addition, in data set [2], the “Clearance (CL) after iv dosing” value worked out at 7 mL/min/kg, the F worked out at 67.5%, the exposure AUC(0-t) was determined as 2440 ng·h/mL and the half-life was 0.45 h. In addition, in data set [2], the Vd was 0.26 L/kg.
In the case of `Cn1cc(Nc2ncc(Cl)c(N[C@@H]3COC4C3OC[C@@H]4NS(=O)(=O)C(C)(C)C)n2)cn1` (stereo partly drawn) [Ex. 24, N-((3S,6R)-6-((5-chloro-2-((1-methyl-1H-pyrazol-4-yl)amino)pyrimidin-4-yl)amino)hexahydrofuro[3,2-b]furan-3-yl)-2-methylpropane-2-sulfonamide], in data set [1], the half-life at 5 μM was determined as 1.31 h and the CLint scaled at 5 μM is 31.6 mL/min/kg. In addition, in data set [3], the half-life at 5 μM is 0.426 h and the CLint scaled at 5 μM was 68 mL/min/kg. Besides, in data set [2], the “Clearance (CL) after iv dosing” value was 29.3 mL/min/kg, the F is reported as 127.3%, the AUC(0-t) came to 567 ng·h/mL and the half-life was 0.7 h. Besides, in data set [2], the Vd came to 1.4 L/kg.
For the compound `O=S(=O)(CC1CC1)N[C@H]1COC2C1OC[C@H]2Nc1nc(Nc2cnn(C3CCNCC3)c2)ncc1Cl` (stereo partly drawn) [Ex. 35, N-((3S,6R)-6-((5-chloro-2-((1-(piperidin-4-yl)-1H-pyrazol-4-yl)amino)pyrimidin-4-yl)amino)hexahydrofuro[3,2-b]furan-3-yl)-1-cyclopropylmethanesulfonamide], the half-life at 5 μM in data set [1] turned out to be 7.35 h; in data set [3], 0.851 h. In addition, the CLint scaled at 5 μM in data set [1] is 5.6 mL/min/kg; in data set [3] it was 34 mL/min/kg.
On to `Cn1cc(Nc2ncc(Cl)c(N[C@@H]3COC4C3OC[C@@H]4NS(=O)(=O)CC3CC(F)C3)n2)cn1` (stereo partly drawn) [Ex. 39, N-((3S,6R)-6-((5-chloro-2-((1-methyl-1H-pyrazol-4-yl)amino)pyrimidin-4-yl)amino)hexahydrofuro[3,2-b]furan-3-yl)-1-(3-fluorocyclobutyl)methanesulfonamide], for which, in data set [2], the “Clearance (CL) after iv dosing” value was 35.8 mL/min/kg, the F is listed as 48.7%, the area under the curve AUC(0-t) stood at 464 ng·h/mL and the half-life is 0.55 h. In data set [2], the Vd came to 1.07 L/kg.
For `CC(O)CS(=O)(=O)N[C@H]1COC2C1OC[C@H]2Nc1nc(Nc2cnn(C)c2)ncc1Cl` (stereo partly drawn) [Ex. 44, N-((3S,6R)-6-((5-chloro-2-((1-methyl-1H-pyrazol-4-yl)amino)pyrimidin-4-yl)amino)hexahydrofuro[3,2-b]furan-3-yl)-2-hydroxypropane-1-sulfonamide], the half-life at 5 μM amounted to 5.16 h in data set [1] and 14 h in data set [3]. Further, the CLint scaled at 5 μM in data set [1] was 8 mL/min/kg; in data set [3], 2.1 mL/min/kg.
